According to patent publication US20060100280A1, “Cell growth regulator” (Chugai Seiyaku Kabushiki Kaisha, priority 2002, published 2006):

What was measured:
[1] = system: human colon cancer cell line SW60; test: Cell growth test, MTS assay, SW60; assay type: cell-based; settings: SW60, surviving cell count by MTS on fourth day of culturing
Description: (§1) Accordingly, L-2-phenylglycine is considered to be a competitive inhibitor with strong specificity to ATB^0,+ (Hatanaka et al. 2002, J. Pharm. Pharmacol.). The present inventors prepared 20 mM L-2-phenylglycine solution by dissolving L-2-phenylglycine in a medium containing 0% FBS. IMDM was used as the medium for SW60 and HT29; and RPMI was used for MCF-7. This solution was diluted with the medium to prepare L-2-phenylglycine solutions of 2, 0.2, 0.02, and 0.002 mM.
(§2) Human colon cancer cell lines SW60 and HT29, and breast cancer cell line MCF-7 were prepared with medium to form 4×10^6, 1.6×10^6, and 1.6×10^6 cells/mL, respectively. 25 μL/well of the suspensions thus obtained (1×10^5, […], respectively) were plated onto a 96-well plate, which already contained 25 μL/well of medium comprising 12% FBS. 50 μL of L-2-phenylglycine solution was then added to each well. The cells were cultured in a 5% CO2 incubator, and surviving cell count was quantified by MTS assay on the fourth day of culturing.

[2] = system: human colon cancer cell line HT29; test: Cell growth test, MTS assay, HT29; assay type: cell-based
Description: as §1, §2

[3] = system: breast cancer cell line MCF-7; test: Cell growth test, MTS assay, MCF-7; assay type: cell-based, human
Description: as §1, §2

[4] = biological target: T1, ATB^0,+ (Canis lupus familiaris, UniProt A0A8I3P2T9); settings: canine small intestinal brush border membrane; Hatanaka et al. 2002, J. Pharm. Pharmacol.; cited from earlier work
T1 construct: from tissue; host or cells: canine small intestinal brush border membrane (finding quoted from Hatanaka et al. 2002, J. Pharm. Pharmacol.)
T1 sequence (A0A8I3P2T9 1-639): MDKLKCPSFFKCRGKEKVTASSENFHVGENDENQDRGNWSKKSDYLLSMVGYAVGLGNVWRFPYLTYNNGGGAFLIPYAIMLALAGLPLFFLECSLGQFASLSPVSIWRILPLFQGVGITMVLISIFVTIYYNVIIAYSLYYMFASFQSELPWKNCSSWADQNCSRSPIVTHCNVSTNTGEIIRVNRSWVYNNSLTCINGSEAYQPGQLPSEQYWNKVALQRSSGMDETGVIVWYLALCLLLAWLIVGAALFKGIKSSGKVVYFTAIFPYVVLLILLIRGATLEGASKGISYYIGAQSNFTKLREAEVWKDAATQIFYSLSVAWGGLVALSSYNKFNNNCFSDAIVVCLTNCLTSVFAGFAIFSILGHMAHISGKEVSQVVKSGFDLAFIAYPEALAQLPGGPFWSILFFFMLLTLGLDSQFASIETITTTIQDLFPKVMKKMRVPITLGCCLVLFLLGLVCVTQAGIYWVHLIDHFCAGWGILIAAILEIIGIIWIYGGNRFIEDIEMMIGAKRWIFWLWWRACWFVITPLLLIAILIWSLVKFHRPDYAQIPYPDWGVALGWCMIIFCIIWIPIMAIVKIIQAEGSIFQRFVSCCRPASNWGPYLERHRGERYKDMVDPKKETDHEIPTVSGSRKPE

## N[C@H](C(=O)O)c1ccccc1 [L-2-phenylglycine]
[1]
  Cell growth suppression: could not be observed
[2]; HT29, in the presence of 10 μM, reached equilibrium, MTS on fourth day
  Cell growth suppression: approximately 10%
[2]; HT29, surviving cell count by MTS on fourth day of culturing
  Cell growth suppression: concentration-dependent cell growth suppression was observed
[3]; MCF-7, in the presence of 1 mM, MTS on fourth day
  Cell growth suppression: approximately 10%
[3]; MCF-7, surviving cell count by MTS on fourth day of culturing
  Cell growth suppression: concentration-dependent cell growth suppression was observed
[4]
  Affinity compared with L-alanine and L-phenylalanine: stronger affinity
